Laboratory results from patent US20170217976A1, “6-(AMINO ACID)-MORPHINAN DERIVATIVES IN COMBINATION WITH PERMEATION […] FOR USE AS AN ORALLY, […], TRA[…] NASALLY AD[…]” (C[…], priority 2014, published 2017).
Like-named read-outs stand apart in the source and are kept apart here.

Tests used:
[1] = biological target: T1, MOR (Rattus norvegicus, UniProt P33535); assay: Opioid receptor binding, MOR, rat brain membranes
T1 construct: from tissue

[2] = biological target: T2, human MOR (Homo sapiens, UniProt P35372); assay: biochemical; format: biochemical; details: for Emax: read-out: [35S]GTPγS binding, MOR % stim.
T2 construct: expressed in transfected cells; host or cells: CHO cells
T2 sequence (P35372 whole entry): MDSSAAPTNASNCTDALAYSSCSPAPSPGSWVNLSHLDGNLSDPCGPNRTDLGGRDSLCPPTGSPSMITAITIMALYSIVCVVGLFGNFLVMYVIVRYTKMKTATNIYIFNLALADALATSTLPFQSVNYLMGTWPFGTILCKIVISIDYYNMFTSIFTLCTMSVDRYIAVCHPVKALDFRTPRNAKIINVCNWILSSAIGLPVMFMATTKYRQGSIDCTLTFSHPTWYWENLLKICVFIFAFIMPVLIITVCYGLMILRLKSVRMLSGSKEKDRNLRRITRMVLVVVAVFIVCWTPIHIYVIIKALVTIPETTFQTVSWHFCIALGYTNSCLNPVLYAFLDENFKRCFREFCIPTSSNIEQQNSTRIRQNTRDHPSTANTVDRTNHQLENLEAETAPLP
Procedure: A number of compounds were evaluated for agonist potency and efficacy at the MOR using the [^35S]GTPγS functional assay in CHO cells expressing human MOR receptors.

[3] = biological target: T3, KOR (Cavia porcellus, UniProt P41144); assay: Opioid receptor binding, KOR, guinea pig brain membranes
T3 construct: from tissue
T3 sequence (P41144 whole entry): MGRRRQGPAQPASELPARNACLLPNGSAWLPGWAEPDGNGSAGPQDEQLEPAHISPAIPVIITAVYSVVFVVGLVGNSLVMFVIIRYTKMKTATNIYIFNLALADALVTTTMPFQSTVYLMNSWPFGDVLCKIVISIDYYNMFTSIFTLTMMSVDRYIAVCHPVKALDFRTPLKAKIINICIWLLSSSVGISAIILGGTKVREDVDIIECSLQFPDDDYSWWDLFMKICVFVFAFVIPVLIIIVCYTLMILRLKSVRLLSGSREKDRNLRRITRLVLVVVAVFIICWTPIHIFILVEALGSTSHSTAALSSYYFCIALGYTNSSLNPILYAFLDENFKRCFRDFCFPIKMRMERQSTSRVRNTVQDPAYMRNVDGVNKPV

[4] = biological target: T4, DOR (Rattus norvegicus, UniProt P33533); assay: Opioid receptor binding, DOR, rat brain membranes
T4 construct: from tissue
T4 sequence (P33533 whole entry): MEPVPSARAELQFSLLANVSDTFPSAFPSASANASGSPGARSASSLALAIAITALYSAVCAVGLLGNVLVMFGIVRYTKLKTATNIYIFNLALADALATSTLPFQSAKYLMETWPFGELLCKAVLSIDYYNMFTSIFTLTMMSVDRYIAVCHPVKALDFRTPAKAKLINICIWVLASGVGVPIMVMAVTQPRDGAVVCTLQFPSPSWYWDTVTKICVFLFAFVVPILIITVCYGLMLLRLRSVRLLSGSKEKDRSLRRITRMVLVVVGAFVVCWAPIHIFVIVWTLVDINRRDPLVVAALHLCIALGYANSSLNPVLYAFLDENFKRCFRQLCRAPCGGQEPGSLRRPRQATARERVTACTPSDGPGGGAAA

[5] = biological target: T5, human MOP expressed in CHO cells (Homo sapiens, UniProt P35372); assay: [35S]GTPγS binding, antagonism at MOR (Ke against DAMGO); format: biochemical; details: for Kb: Table 1-6, antagonist Ke measured against DAMGO
T5 construct: expressed in transfected cells; host or cells: CHO cells (per the unit's head)
T5 sequence (P35372 whole entry): as the sequence (P35372 whole entry) above

[6] = test system: mouse vas deferens preparation; assay: Mouse vas deferens bioassay; details: for IC50: read-out: IC50, agonist potency in mouse vas deferens
Procedure: The mouse vas deferens bioassay was performed as described in: M. Spetea et al., Eur. J. Pharmacol. 2004, 483, 301-308

[7] = test system: rats; assay: Tail-flick test in rats after oral administration; format: in vivo, rat; details: for ED50: Rattus norvegicus, po
Procedure: The rat tail-flick test was performed as described in: S. Furst et. al. J. Pharmacol. Exp. Ther. 2005, 312, 609-618

[8] = pH-metric determination of pKa, logP and logD in octanol/water (PCA200/Cheqsol); format: physicochemical
Procedure: All titrations were performed in 0.15M KCl solution under argon gas. The pKa was determined by the shape of the titration curve and partition coefficients were determined by the shift in titration curve of pKa in the presence of octanol. The analysis of pH-metric data was performed by RefinementPro software (version 2.0, Sirius, Sussex, UK).

[9] = Permeation study through rat small intestine in Ussing type diffusion chambers; format: in vitro ADME; details: apical to basolateral, pH 7.5, no permeation enhancer, three hours incubation
Procedure: Ussing type diffusion chambers with a surface area of 0.64 cm^2 were utilized. Rat small intestine was excised immediately after sacrificing the animal and mounted in the chamber. The donor and acceptor compartments of the chamber were filled with 1.0 ml of the freshly prepared incubation medium containing either 40 mM HEPES buffer (HEPES=2-(4-(2-hydroxyethyl)-1-piperazinyl)-ethane sulfonic acid) adjusted to pH 7.5 or 6.5 or 50 mM sodium acetate buffer adjusted to pH 5.5. […] The samples were centrifuged at 7,200 g for 5 minutes and the supernatant was analyzed via HPLC. Cumulative corrections were performed for the previously removed samples to determine the total amount permeated.

[10] = Riba P. et al. 2010, cited from earlier work
[11] = cited from earlier work
[12] = Binding Ki (nM) MOR, in vitro binding assay, rat brain membranes
[13] = Binding Ki (nM) KOR, in vitro binding assay, guinea pig brain membranes
[14] = Binding Ki (nM) DOR, in vitro binding assay, rat brain membranes
[15] = Binding Ki MOR, Table 1-6, rat brain membranes
[16] = Binding Ki MOR, Table 2-6, rat brain membranes
[17] = Binding Ki KOR, Table 1-6, guinea pig brain membranes
[18] = Binding Ki KOR, Table 2-6, guinea pig brain membranes
[19] = Binding Ki DOR, Table 1-6, rat brain membranes
[20] = Binding Ki DOR, Table 2-6, rat brain membranes
[21] = read-out: [35S]GTPγS binding, MOR Ke
[22] = 0.5 h, read-out: ED50 (p.o., mg/kg) 30 min, 30 min
[23] = read-out: ED50 (p.o., mg/kg) 1 h, 1 h
[24] = read-out: ED50 (p.o., mg/kg) 2 h, 2 h
[25] = read-out: ED50 (p.o., mg/kg) 3 h, 3 h

T1 sequence (P33535 whole entry): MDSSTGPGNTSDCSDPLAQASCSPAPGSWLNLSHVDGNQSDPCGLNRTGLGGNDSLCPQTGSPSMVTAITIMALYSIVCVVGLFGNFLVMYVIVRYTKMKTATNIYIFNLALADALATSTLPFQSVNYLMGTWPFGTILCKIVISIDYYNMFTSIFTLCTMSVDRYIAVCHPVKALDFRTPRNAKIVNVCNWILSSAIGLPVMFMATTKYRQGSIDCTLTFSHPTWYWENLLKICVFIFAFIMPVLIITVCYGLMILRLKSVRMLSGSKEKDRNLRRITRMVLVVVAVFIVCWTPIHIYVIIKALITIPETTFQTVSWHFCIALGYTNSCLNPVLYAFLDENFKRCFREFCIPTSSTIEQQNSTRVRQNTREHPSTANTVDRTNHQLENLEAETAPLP

| Compound | Ki [1, 15] [nM] | Ki [1, 16] [nM] | Ki [3, 17] [nM] | Ki [3, 18] [nM] | EC50 [5] [nM] | Kb ([5]; [35S]GTPγS binding, MOR Ke) [nM] | Ki [4, 19] [nM] | Ki [4, 20] [nM] | further results |
| --- | --- | --- | --- | --- | --- | --- | --- | --- | --- |
| CO[C@@]12CC[C@@H](N[C@@H](Cc3c[nH]c4ccccc34)C(=O)O)[C@@H]3Oc4c(O)ccc5c4[C@@]31CCN(C)[C@@H]2C5 [Compound 46] | – | – | – | – | – | – | – | – | Ki [1, 12]: 0.65 nM; Ki ([1]; Binding Ki MOR, Table 1-4, rat brain membranes): 0.65 nM; EC50 ([2]; Table 1-4, human MOP expressed in CHO cells, read-out: [35S]GTPγS binding, MOR EC50): 0.61 nM; Emax ([2]; Table 1-4, measured against DAMGO): 112%; Ki [3, 13]: 8.66 nM; Ki ([3]; Binding Ki KOR, Table 1-4, guinea pig brain membranes): 8.66 nM; Ki [4, 14]: 1.19 nM; Ki ([4]; Binding Ki DOR, Table 1-4, rat brain membranes): 1.19 nM |
| CO[C@@]12CC[C@H](NCC(=O)O)[C@@H]3Oc4c(O)ccc5c4[C@@]31CCN(CC1CC1)[C@@H]2C5 [Compound 61] | 0.68 | 0.68 | 4.65 | 4.65 | > 10000 | 0.63 | 5.15 | 5.15 | – |
| CO[C@@]12CC[C@@H](NCC(=O)O)[C@@H]3Oc4c(O)ccc5c4[C@@]31CCN(CC1CC1)[C@@H]2C5 [Compound 62] | 1.31 | 1.31 | 9.31 | 9.31 | > 10000 | 0.19 | 4.76 | 4.76 | – |
| CO[C@@]12CC[C@H](NCCC(=O)O)[C@@H]3Oc4c(O)ccc5c4[C@@]31CCN(CC1CC1)[C@@H]2C5 [Compound 63] | 1.35 | 1.35 | 7.81 | 7.81 | > 10000 | 0.27 | 6.25 | 6.25 | – |
| CO[C@@]12CC[C@@H](NCCC(=O)O)[C@@H]3Oc4c(O)ccc5c4[C@@]31CCN(CC1CC1)[C@@H]2C5 [Compound 64] | 1.51 | 1.51 | 11.7 | 11.7 | > 10000 | 0.96 | 8.12 | 8.12 | – |
| CO[C@@]12CC[C@H](NCCCC(=O)O)[C@@H]3Oc4c(O)ccc5c4[C@@]31CCN(CC1CC1)[C@@H]2C5 [Compound 65] | 1.21 | 1.21 | 5.31 | 5.31 | > 10000 | – | 10.7 | 10.7 | Kb [5, 21]: 0.94 nM |
| CO[C@@]12CC[C@@H](NCCCC(=O)O)[C@@H]3Oc4c(O)ccc5c4[C@@]31CCN(CC1CC1)[C@@H]2C5 [Compound 66] | 3.36 | 3.36 | 16.8 | 16.8 | > 10000 | – | 10.2 | 10.2 | Kb [5, 21]: 1.06 nM |
| C[C@@H](NC(=O)[C@@H](N)Cc1ccc(O)cc1)C(=O)NCC(=O)N(C)[C@@H](Cc1ccccc1)C(=O)NCCO [DAMGO, reference compound] | – | – | – | – | – | – | – | – | IC50 [6]: 76.6 nM |
| CCO.CO[C@@]12CC[C@@H](NCC(=O)O)[C@@H]3Oc4c(O)ccc5c4[C@@]31CCN(C)[C@@H]2C5.Cl.Cl.O [HS731, 2-[(4,5α-EPOXY-3-HYDROXY-14β-METHOXY-17-METHYLMORPHINAN-6β-YL)AMINO]ACETIC ACID DIHYDROCHLORIDE HYDRATE ETHANOLATE] | – | – | – | – | – | – | – | – | ED50 [7, 22]: 21 mg/kg; ED50 [7, 23]: 5.52 mg/kg; ED50 [7, 24]: 6.78 mg/kg; ED50 [7, 25]: 6.33 mg/kg; pKa ([8]; […] KCl solution (aqueous titration), 25° C., 0.15M KCl): 2.4; logP ([8]; octanol/water, 25° C.): -0.78; logD ([8]; octanol/water, pH 7.4, 25° C.): -2.06; EC50 [2]: 3.88 nM; Emax [2]: 107%; IC50 ([6]; Mus musculus): 7 nM; permeation through rat intestinal mucosa [9]: 11% |
| CCOC(=O)CN[C@@H]1CC[C@@]2(OC)[C@H]3Cc4ccc(O)c5c4[C@@]2(CCN3C)[C@H]1O5 [HS731-Et ester] | – | – | – | – | – | – | – | – | ED50 [7, 22]: > 2.5 mg/kg; ED50 [7, 23]: 2.34 mg/kg; ED50 [7, 24]: 0.85 mg/kg; ED50 [7, 25]: 0.71 mg/kg; ED50 ([7]; read-out: ED50 (p.o., mg/kg) 4 h, 4 h): 0.82 mg/kg; antinociceptive potency, fold higher than HS731 after 1 h ([7]; p.o., 1 h, relative to HS731): ca. 2 fold; antinociceptive potency, fold higher than HS731 after 2 h ([7]; p.o., 2 h, relative to HS731): ca. 8 fold; antinociceptive potency, fold higher than HS731 after 3 h ([7]; p.o., 3 h, relative to HS731): ca. 9 fold; Ki [1, 12]: 0.74 nM; IC50 ([6]; Mus musculus): 23.8 nM; times less potent than HS731 in mouse vas deferens bioassay ([6]; relative to HS731): about 3.5; Ki [3, 13]: 21.9 nM; Ki [4, 14]: 0.81 nM |
| CN1CC[C@]23c4c5ccc(O)c4O[C@H]2C(=O)CC[C@@]3(O)[C@H]1C5 [OMO, oxymorphone] | – | – | – | – | – | – | – | – | logD (pH = 7.4) ([10]; pH 7.4, published data): −0.32; logP ([10]; published data): 0.67; pKa ([10]; published data): 8.33 |
| C[C@H]1CN(C[C@H](Cc2ccccc2)C(=O)NCC(=O)O)CC[C@@]1(C)c1cccc(O)c1 [alvimopan] | – | – | – | – | – | – | – | – | oral bioavailability [11]: approx. 6% |
